Consider 24 compounds from US10849881B2, “Octahydro-cyclobuta[1,2-c;3,4-c′]dipyrrol-2-yl” (Hoffmann-La Roche Inc., priority 2013, dated 2020).

Molecules are shown by their SMILES.

The test deals with ATX (human His-tagged) (Homo sapiens (Human), UniProt Q13822). The test can be described thus: Human ATX enzyme inhibition assay (fluorescence quenching, MR121 substrate). The format is biochemical. The note with it: 30 nM ATX, 1 μM MR121 substrate, 30° C., pH 8.0. The gist of the method:
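Fluorescence quenching assay with MR121/tryptophan-labelled substrate analogue in Tris-HCl buffer (140 mM NaCl, CaCl2, MgCl2, 0.01% Triton X-100, pH 8.0). Serially diluted compounds were preincubated 15 min at 30 °C with 30 nM ATX (final), then 1 µM substrate (final) added and incubated 15 min at 30 °C.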

The IC50 is the midpoint of a concentration-inhibition curve. Read a high IC50 as a need for much substance.

Consider `Cc1ccc2ccc(C(=O)N3C[C@@H]4[C@H](C3)[C@H]3CN(C(=O)c5ccc6[nH]nnc6c5)C[C@@H]43)cc2c1` [Example 1.014, [(3aS,3bS,6aR,6bR)-5-(1H-benzotriazole-5-carbonyl)-octahydro-cyclobuta[1,2-c;3,4-c′]dipyrrol-2-yl]-(7-methyl-naphthalen-2-yl)-methanone], for which the IC50 came out at 45 nM. For `O=C(c1ccc2[nH]nnc2c1)N1C[C@@H]2[C@H](C1)[C@H]1CN(C(=O)c3ccc(-c4ccc(Cl)cc4)cn3)C[C@@H]21` [Example 1.072, [(3aR,3bS,6aR,6bS)-5-(1H-benzotriazole-5-carbonyl)-octahydro-cyclobuta[1,2-c;3,4-c′]dipyrrol-2-yl]-[5-(4-chloro-phenyl)-pyridin-2-yl]-methanone], the IC50 is 6 nM.

In turn, `CC(C)Oc1cc(C(=O)N2C[C@@H]3[C@H]4CN(C(=O)c5ccc6[nH]nnc6c5)C[C@H]4[C@@H]3C2)nc2cc(C(F)(F)F)ccc12` [Example 1.070, [(3aR,3bS,6aR,6bS)-5-(1H-benzotriazole-5-carbonyl)-octahydro-cyclobuta[1,2-c;3,4-c′]dipyrrol-2-yl]-(4-isopropoxy-7-trifluoromethyl-quinolin-2-yl)-methanone] came in with an IC50 of 4 nM. With `O=C(c1ccc2[nH]nnc2c1)N1C[C@@H]2[C@H](C1)[C@H]1CN(C(=O)C3CCc4ccccc4C3)C[C@@H]21` (stereo partly drawn) [Example 1.031, [(3aS,3bR,6aS,6bR)-5-(1H-benzotriazole-5-carbonyl)-octahydro-cyclobuta[1,2-c;3,4-c′]dipyrrol-2-yl]-(1,2,3,4-tetrahydro-naphthalen-2-yl)-methanone], it took 224 nM to reach half-maximal inhibition (IC50). Next, `COc1c(C(=O)N2C[C@@H]3[C@H]4CN(C(=O)c5ccc6[nH]nnc6c5)C[C@H]4[C@@H]3C2)ccc2ccccc12` [Example 1.022, [(3aS,3bS,6aR,6bR)-5-(1H-benzotriazole-5-carbonyl)-octahydro-cyclobuta[1,2-c;3,4-c′]dipyrrol-2-yl]-(1-methoxy-naphthalen-2-yl)-methanone]: 155 nM.

As to `COc1ccc2cc(C(=O)N3C[C@@H]4[C@H](C3)[C@H]3CN(C(=O)c5ccc6[nH]nnc6c5)C[C@@H]43)ccc2c1` [Example 1.005, [(3aS,3bS,6aR,6bR)-5-(1H-benzotriazole-5-carbonyl)-octahydro-cyclobuta[1,2-c;3,4-c′]dipyrrol-2-yl]-(6-methoxy-naphthalen-2-yl)-methanone], inhibition was half-maximal at 120 nM (IC50). The compound `CC(C)c1ccccc1OCC(=O)N1C[C@@H]2[C@H](C1)[C@H]1CN(C(=O)c3ccc4[nH]nnc4c3)C[C@@H]21` [Example 1.009, 1-[(3aR,3bS,6aR,6bS)-5-(1H-benzotriazole-5-carbonyl)-octahydro-cyclobuta[1,2-c;3,4-c′]dipyrrol-2-yl]-2-(2-isopropyl-phenoxy)-ethanone] showed an IC50 of 8 nM.

Take `O=C(c1ccc(OCC(F)(F)F)nc1)N1C[C@@H]2[C@H](C1)[C@H]1CN(C(=O)c3ccc4[nH]nnc4c3)C[C@@H]21` [Example 1.099, (1H-benzotriazol-5-yl)-{(3aS,3bS,6aR,6bR)-5-[6-(2,2,2-trifluoro-ethoxy)-pyridine-3-carbonyl]-octahydro-cyclobuta[1,2-c;3,4-c′]dipyrrol-2-yl}-methanone]: the half-maximal inhibitory concentration (IC50) worked out at 277 nM. The same measure for `O=C(c1ccc2[nH]nnc2c1)N1C[C@@H]2[C@H](C1)[C@H]1CN(C(=O)c3cc(OCC(F)(F)F)c4ccccc4n3)C[C@@H]21` [Example 1.084, (1H-benzotriazol-5-yl)-{(3aS,3bR,6aS,6bR)-5-[4-(2,2,2-trifluoro-ethoxy)-quinoline-2-carbonyl]-octahydro-cyclobuta[1,2-c;3,4-c′]dipyrrol-2-yl}-methanone]: 5 nM; for `CCOc1cc(C(=O)N2C[C@@H]3[C@H]4CN(C(=O)c5ccc6[nH]nnc6c5)C[C@H]4[C@@H]3C2)nc2ccc(C(F)(F)F)cc12` [Example 1.080, (1H-benzotriazol-5-yl)-[(3aS,3bR,6aS,6bR)-5-(4-ethoxy-6-trifluoromethyl-quinoline-2-carbonyl)-octahydro-cyclobuta[1,2-c;3,4-c′]dipyrrol-2-yl]-methanone]: 2.5 nM.

In turn, `O=C(c1ccc2cc(Cl)ccc2c1)N1C[C@@H]2[C@H](C1)[C@H]1CN(C(=O)c3ccc4[nH]nnc4c3)C[C@@H]21` [Example 1, [(3aS,3bS,6aR,6bR)-5-(1H-Benzotriazole-5-carbonyl)-octahydro-cyclobuta[1,2-c;3,4-c′]dipyrrol-2-yl]-(6-chloro-naphthalen-2-yl)-methanone] gave an IC50 of 34 nM. Next, `O=C(c1ccc2[nH]nnc2c1)N1C[C@@H]2[C@H](C1)[C@H]1CN(C(=O)c3ccc4cc[nH]c4c3)C[C@@H]21` [Example 1.040, [(3aS,3bS,6aR,6bR)-5-(1H-benzotriazole-5-carbonyl)-octahydro-cyclobuta[1,2-c;3,4-c′]dipyrrol-2-yl]-(1H-indol-6-yl)-methanone]: 8670 nM; `O=C(c1ccc(-c2ccc(F)cc2)cc1)N1C[C@@H]2[C@H](C1)[C@H]1CN(C(=O)c3ccc4[nH]nnc4c3)C[C@@H]21` [Example 1.002, [(3aS,3bS,6aR,6bR)-5-(1H-benzotriazole-5-carbonyl)-octahydro-cyclobuta[1,2-c;3,4-c′]dipyrrol-2-yl]-(4′-fluoro-biphenyl-4-yl)-methanone]: 64 nM. The compound `CCOc1cc(C(=O)N2C[C@@H]3[C@H](C2)[C@H]2CN(C(=O)[C@@H]4CCc5[nH]nnc5C4)C[C@@H]32)nc2cc(Cl)ccc12` [Example 1.077, (7-chloro-4-ethoxy-quinolin-2-yl)-[(3aR,3bS,6aR,6bS)-5-((R)-4,5,6,7-tetrahydro-1H-benzotriazole-5-carbonyl)-octahydro-cyclobuta[1,2-c;3,4-c′]dipyrrol-2-yl]methanone] registered an IC50 of 7.5 nM. Take `CC(C)Oc1cc(C(=O)N2C[C@@H]3[C@H]4CN(C(=O)c5ccc6[nH]nnc6c5)C[C@H]4[C@@H]3C2)nc2ccccc12` [Example 1.067, [(3aR,3bS,6aR,6bS)-5-(1H-benzotriazole-5-carbonyl)-octahydro-cyclobuta[1,2-c;3,4-c′]dipyrrol-2-yl]-(4-isopropoxy-quinolin-2-yl)-methanone]: it took 5 nM to reach half-maximal inhibition (IC50).

On to `COCCOc1cc(C(=O)N2C[C@@H]3[C@H]4CN(C(=O)c5ccc6[nH]nnc6c5)C[C@H]4[C@@H]3C2)nc2cc(C(F)(F)F)ccc12` [Example 1.079, (1H-benzotriazol-5-yl)-{(3aS,3bR,6aS,6bR)-5-[4-(2-methoxy-ethoxy)-7-trifluoromethyl-quinoline-2-carbonyl]-octahydro-cyclobuta[1,2-c;3,4-c′]dipyrrol-2-yl}-methanone], for which half-maximal inhibition (IC50) required 31.5 nM.

`O=C(c1ccc2[nH]nnc2c1)N1CC2C(C1)C1CN(C(=O)c3cc(OCC(F)(F)F)c(C4CC4)nn3)CC21` (stereo not drawn) [Example 1.095] gave a half-maximal inhibitory concentration (IC50) of 32 nM. The same measure for `COCCOc1nc(C(=O)N2C[C@@H]3[C@H]4CN(C(=O)c5ccc6[nH]nnc6c5)C[C@H]4[C@@H]3C2)cc2ccccc12` [Example 1.057, [(3aR,3bS,6aR,6bS)-5-(1H-benzotriazole-5-carbonyl)-octahydro-cyclobuta[1,2-c;3,4-c′]dipyrrol-2-yl]-[1-(2-methoxy-ethoxy)-isoquinoline-3-yl]-methanone]: 7.7 nM; for `O=C(c1ccc2[nH]nnc2c1)N1C[C@@H]2[C@H](C1)[C@H]1CN(C(=O)c3ccc(C(F)(F)F)c(OCC4CC4)n3)C[C@@H]21` [Example 1.093, (1H-benzotriazol-5-yl)-[(3aS,3bR,6aS,6bR)-5-(6-cyclopropylmethoxy-5-trifluoromethyl-pyridine-2-carbonyl)-octahydro-cyclobuta[1,2-c;3,4-c′]dipyrrol-2-yl]-methanone]: 17 nM; for `CC(C)Oc1cc(C(=O)N2C[C@@H]3[C@H]4CN(C(=O)c5ccc6[nH]nnc6c5)C[C@H]4[C@@H]3C2)cc2[nH]ccc12` [Example 1.061, [(3aS,3bS,6aR,6bR)-5-(1H-benzotriazole-5-carbonyl)-octahydro-cyclobuta[1,2-c;3,4-c′]dipyrrol-2-yl]-(4-isopropoxy-1H-indol-6-yl)-methanone]: 40.5 nM. Next, `COc1cc(C(=O)N2C[C@@H]3[C@H](C2)[C@H]2CN(C(=O)[C@@H]4CCc5[nH]nnc5C4)C[C@@H]32)cc2ccccc12` [Example 1.044, (4-methoxy-naphthalen-2-yl)-[(3aR,3bS,6aR,6bS)-5-((R)-4,5,6,7-tetrahydro-1H-benzotriazole-5-carbonyl)-octahydro-cyclobuta[1,2-c;3,4-c′]dipyrrol-2-yl]-methanone]: 13 nM; `Cc1ccc2cc(C(=O)N3C[C@@H]4[C@H](C3)[C@H]3CN(C(=O)c5ccc6[nH]nnc6c5)C[C@@H]43)ccc2c1` [Example 1.013, [(3aS,3bS,6aR,6bR)-5-(1H-benzotriazole-5-carbonyl)-octahydro-cyclobuta[1,2-c;3,4-c′]dipyrrol-2-yl]-(6-methyl-naphthalen-2-yl)-methanone]: 54 nM.

Consider `O=C(c1ccc2[nH]nnc2c1)N1C[C@@H]2[C@H](C1)[C@H]1CN(C(=O)c3ccc4ccccc4n3)C[C@@H]21` [Example 1.038, [(3aR,3bS,6aR,6bS)-5-(1H-benzotriazole-5-carbonyl)-octahydro-cyclobuta[1,2-c;3,4-c′]dipyrrol-2-yl]-quinolin-2-yl-methanone], for which the IC50 amounted to 687 nM. Consider `O=C(c1ccc2[nH]ccc2c1)N1C[C@@H]2[C@H](C1)[C@H]1CN(C(=O)c3ccc4[nH]nnc4c3)C[C@@H]21` [Example 1.043, [(3aS,3bS,6aR,6bR)-5-(1H-benzotriazole-5-carbonyl)-octahydro-cyclobuta[1,2-c;3,4-c′]dipyrrol-2-yl]-(1H-indol-5-yl)-methanone], for which the IC50 amounted to 1410 nM. This IC50 lies about 2.1-fold higher than the previous one.
